According to the supplement of paper PMC10307832:

Key:
Assay in all cases: relative viability (nuclei count vs DMSO), 5 days (fraction); higher = more cells survive
HCC-78 = system: HCC-78
Summary of the method: (§1)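 After 5 days of treatment, lung cancer cells in 1536-well plates were fixed and stained in a single step (final 0.05% Triton X-100, 1% formaldehyde, 1 ug/ml Hoechst) and their nuclei counted on 4× images. Treatment had been applied by pin tool the day after seeding as one drug alone or as a fixed anchor-drug dose with five library-drug doses (not always all listed) in √10 steps. Relative viability is the nuclei count of treated wells divided by that of vehicle wells, and values are medians of duplicate plates.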

NCI-H1915 = system: NCI-H1915
Summary of the method: as §1

NCI-H2126 = system: NCI-H2126
Summary of the method: as §1

NCI-H2405 = system: NCI-H2405
Summary of the method: as §1

LC-2-ad = system: LC-2-ad
Summary of the method: as §1

NCI-H520 = system: NCI-H520
Summary of the method: as §1

NCI-H2347 = system: NCI-H2347
Summary of the method: as §1

COR-L 105 = system: COR-L 105
Summary of the method: as §1

EPLC-272H = system: EPLC-272H
Summary of the method: as §1

NCI-H2087 = system: NCI-H2087
Summary of the method: as §1

NCI-H23 = system: NCI-H23
Summary of the method: as §1

LCLC-97TM1 = system: LCLC-97TM1
Summary of the method: as §1

ChaGo-K-1 = system: ChaGo-K-1
Summary of the method: as §1

PC-14 = system: PC-14
Summary of the method: as §1

201T = system: 201T
Summary of the method: as §1

NCI-H647 = system: NCI-H647
Summary of the method: as §1

HCC-827 = system: HCC-827
Summary of the method: as §1

RERF-LC-KJ = system: RERF-LC-KJ
Summary of the method: as §1

H3255 = system: H3255
Summary of the method: as §1

NCI-H661 = system: NCI-H661
Summary of the method: as §1

NCI-H1666 = system: NCI-H1666
Summary of the method: as §1

NCI-H650 = system: NCI-H650
Summary of the method: as §1

## COc1cc2nccc(Oc3ccc(NC(=O)Nc4cc(C)on4)c(Cl)c3)c2cc1OC [Tivozanib] + CC(C)C[C@H](NC(=O)[C@H](Cc1ccccc1)NC(=O)c1cnccn1)B(O)O [Bortezomib] (partner 0.002 µM)
HCC-78; first compound 0.005 µM
  relative viability: 0.383
HCC-78; first compound 0.01581 µM
  relative viability: 0.496
HCC-78; first compound 0.05 µM
  relative viability: 0.57
HCC-78; first compound 0.1581 µM
  relative viability: 0.549
HCC-78; first compound 0.5 µM
  relative viability: 0.452
NCI-H1915; first compound 0.005 µM
  relative viability: 0.945
NCI-H1915; first compound 0.01581 µM
  relative viability: 0.986
NCI-H1915; first compound 0.05 µM
  relative viability: 0.952
NCI-H1915; first compound 0.1581 µM
  relative viability: 0.921
NCI-H1915; first compound 0.5 µM
  relative viability: 0.884
NCI-H2126; first compound 0.005 µM
  relative viability: 1.1
NCI-H2126; first compound 0.01581 µM
  relative viability: 1.07
NCI-H2126; first compound 0.05 µM
  relative viability: 1.14
NCI-H2126; first compound 0.1581 µM
  relative viability: 0.811
NCI-H2126; first compound 0.5 µM
  relative viability: 1.11
NCI-H2405; first compound 0.005 µM
  relative viability: 0.87
NCI-H2405; first compound 0.01581 µM
  relative viability: 1.01
NCI-H2405; first compound 0.05 µM
  relative viability: 1.05
NCI-H2405; first compound 0.1581 µM
  relative viability: 1.02
NCI-H2405; first compound 0.5 µM
  relative viability: 0.886
LC-2-ad; first compound 0.005 µM
  relative viability: 0.951
LC-2-ad; first compound 0.01581 µM
  relative viability: 1.04
LC-2-ad; first compound 0.05 µM
  relative viability: 0.971
LC-2-ad; first compound 0.1581 µM
  relative viability: 0.867
LC-2-ad; first compound 0.5 µM
  relative viability: 0.843
NCI-H520; first compound 0.005 µM
  relative viability: 0.575
NCI-H520; first compound 0.01581 µM
  relative viability: 0.693
NCI-H520; first compound 0.05 µM
  relative viability: 0.645
NCI-H520; first compound 0.1581 µM
  relative viability: 0.519
NCI-H520; first compound 0.5 µM
  relative viability: 0.605
NCI-H2347; first compound 0.005 µM
  relative viability: 0.875
NCI-H2347; first compound 0.01581 µM
  relative viability: 0.818
NCI-H2347; first compound 0.05 µM
  relative viability: 1.18
NCI-H2347; first compound 0.5 µM
  relative viability: 0.986
COR-L 105; first compound 0.01581 µM
  relative viability: 0.751
COR-L 105; first compound 0.05 µM
  relative viability: 0.759
COR-L 105; first compound 0.1581 µM
  relative viability: 0.702
COR-L 105; first compound 0.5 µM
  relative viability: 0.681
EPLC-272H; first compound 0.005 µM
  relative viability: 0.967
EPLC-272H; first compound 0.01581 µM
  relative viability: 0.856
EPLC-272H; first compound 0.05 µM
  relative viability: 0.949
EPLC-272H; first compound 0.1581 µM
  relative viability: 0.727
EPLC-272H; first compound 0.5 µM
  relative viability: 0.676
NCI-H2087; first compound 0.005 µM
  relative viability: 0.644
NCI-H2087; first compound 0.01581 µM
  relative viability: 0.919
NCI-H2087; first compound 0.05 µM
  relative viability: 0.842
NCI-H2087; first compound 0.1581 µM
  relative viability: 0.77
NCI-H2087; first compound 0.5 µM
  relative viability: 0.739
NCI-H23; first compound 0.005 µM
  relative viability: 0.946
NCI-H23; first compound 0.01581 µM
  relative viability: 0.975
NCI-H23; first compound 0.05 µM
  relative viability: 1.1
NCI-H23; first compound 0.1581 µM
  relative viability: 0.785
NCI-H23; first compound 0.5 µM
  relative viability: 0.839
LCLC-97TM1; first compound 0.005 µM
  relative viability: 0.533
LCLC-97TM1; first compound 0.01581 µM
  relative viability: 0.584
LCLC-97TM1; first compound 0.05 µM
  relative viability: 0.913
LCLC-97TM1; first compound 0.1581 µM
  relative viability: 0.603
LCLC-97TM1; first compound 0.5 µM
  relative viability: 1
ChaGo-K-1; first compound 0.005 µM
  relative viability: 0.907
ChaGo-K-1; first compound 0.01581 µM
  relative viability: 1.08
ChaGo-K-1; first compound 0.05 µM
  relative viability: 1
ChaGo-K-1; first compound 0.1581 µM
  relative viability: 0.969
ChaGo-K-1; first compound 0.5 µM
  relative viability: 0.935
PC-14; first compound 0.005 µM
  relative viability: 0.821
PC-14; first compound 0.01581 µM
  relative viability: 0.847
PC-14; first compound 0.05 µM
  relative viability: 0.99
PC-14; first compound 0.1581 µM
  relative viability: 0.811
PC-14; first compound 0.5 µM
  relative viability: 0.812
201T; first compound 0.005 µM
  relative viability: 1.11
201T; first compound 0.01581 µM
  relative viability: 1.08
201T; first compound 0.05 µM
  relative viability: 1.06
201T; first compound 0.1581 µM
  relative viability: 1.07
201T; first compound 0.5 µM
  relative viability: 1.11
NCI-H647; first compound 0.005 µM
  relative viability: 0.953
NCI-H647; first compound 0.01581 µM
  relative viability: 0.886
NCI-H647; first compound 0.05 µM
  relative viability: 1.05
NCI-H647; first compound 0.1581 µM
  relative viability: 0.941
NCI-H647; first compound 0.5 µM
  relative viability: 0.957
HCC-827; first compound 0.005 µM
  relative viability: 0.981
HCC-827; first compound 0.01581 µM
  relative viability: 1.01
HCC-827; first compound 0.05 µM
  relative viability: 1.13
HCC-827; first compound 0.1581 µM
  relative viability: 1.08
HCC-827; first compound 0.5 µM
  relative viability: 1.03
RERF-LC-KJ; first compound 0.005 µM
  relative viability: 1.11
RERF-LC-KJ; first compound 0.01581 µM
  relative viability: 1.06
RERF-LC-KJ; first compound 0.05 µM
  relative viability: 1.11
RERF-LC-KJ; first compound 0.1581 µM
  relative viability: 0.83
RERF-LC-KJ; first compound 0.5 µM
  relative viability: 1.03
H3255; first compound 0.005 µM
  relative viability: 0.739
H3255; first compound 0.01581 µM
  relative viability: 0.823
H3255; first compound 0.05 µM
  relative viability: 0.795
H3255; first compound 0.1581 µM
  relative viability: 0.582
H3255; first compound 0.5 µM
  relative viability: 0.697
NCI-H661; first compound 0.005 µM
  relative viability: 0.682
NCI-H661; first compound 0.01581 µM
  relative viability: 0.818
NCI-H661; first compound 0.05 µM
  relative viability: 0.753
NCI-H661; first compound 0.1581 µM
  relative viability: 0.717
NCI-H661; first compound 0.5 µM
  relative viability: 0.85
NCI-H1666; first compound 0.005 µM
  relative viability: 0.746
NCI-H1666; first compound 0.01581 µM
  relative viability: 0.792
NCI-H1666; first compound 0.05 µM
  relative viability: 0.835
NCI-H1666; first compound 0.1581 µM
  relative viability: 0.74
NCI-H1666; first compound 0.5 µM
  relative viability: 0.875
NCI-H650; first compound 0.005 µM
  relative viability: 0.447
NCI-H650; first compound 0.01581 µM
  relative viability: 0.956
NCI-H650; first compound 0.05 µM
  relative viability: 0.833
NCI-H650; first compound 0.1581 µM
  relative viability: 0.579
NCI-H650; first compound 0.5 µM
  relative viability: 0.497
